Measured values taken from patent publication US12139474B2, “LPA receptor antagonists and uses thereof” (Gilead Sciences, Inc., priority 2020, dated 2024).

target: T1, human LPAR1 (Homo sapiens, UniProt Q92633); test: LPAR1 intracellular calcium mobilization assay (antagonist mode); assay type: cell-based; settings: CHO-K1 EDG2 cells expressing human LPAR1; 60 min pre-incubation with compound, then LPA 18:2 at EC80 (100 nM); FLIPR calcium signal
T1 construct: host or cells: CHO-K1
Procedure: In vitro LPAR1 activity was measured in an intracellular calcium mobilization assay.
CHO-K1 EDG2 cells (DiscoverX cat #93-0644C2) expressing human LPAR1 (NM_001401.3) were seeded in a total volume of 25 μL of Dulbecco's Modification of Eagle's Medium (DMEM) with 10% Fetal Bovine Serum, 1× PenStrepGlutamine, 300 ug/ml Hygromycin, and 800 ug/ml G418 into 384-well tissue culture plate (Grenier #781091) at 15,000 cells/well and incubated at 37° C. overnight. Prior to testing, 25 μL Calcium Loading Dye Component A (FLIPR Calcium 6 Assay Kit Molecular Device #R8190) and 2.5 mM Probenecid (Invitrogen #P36400, prepared fresh) in Hank's Balanced Salt Solution (Corning #21-023-CV), 20 mM HEPES (Corning #25-060-CI), 0.1% Bovine Serum Albumin (Sigma-Aldrich #A7906-500G) was add to the cells for 60 minutes at 37° C.
Agonist dose curves of LPA 18:2 (Avanti Polar Lipids cat #857138, 0.5 nM to 10 μM) were recorded to determine the LPA 18:2 EC80 for subsequent antagonist assays. For agonist dose curves, cells were removed from the incubator 2 hours after dye loading and transferred to the FLIPR Tetra instrument (Molecular Devices, San Jose, CA). Calcium mobilization was monitored for 5 min and 10 μL 6× LPA in HBSS/20 mM Hepes/0.1% bovine serum albumin (BSA) was added to the cells 5 seconds into the assay.
To determine the LPAR1 antagonist activity of test compounds, cells were pre-incubated with test compound at a dose range of 0.5 nM to 10 μM, followed by LPA at EC80 concentration (100 nM). After dye loading, cells were removed from the incubator and 0.3 μL of 200× antagonist was added. Cells were incubated for 60 minutes at 37° C. Antagonist activity was measured on a FLIPR Tetra. Calcium mobilization was monitored for 3.5 minutes and 10 μL 6× EC80 LPA in HBSS, 20 mM HEPES, and 0.1% BSA was added to the cells 5 seconds into the assay. Signal amplitude (Maximum minus minimum) values were plotted against log10 of antagonist concentration using Dose Response Tool (Gilead Sciences Inc.) to determine EC50.
To assess the antagonistic potential of exemplified compounds EC50 values were determined for Compounds 1 to 32 in the LPAR1 calcium mobilization assay. The compound numbers correspond to the compound numbers in Examples 1 to 33.

T1 sequence (Q92633 whole entry): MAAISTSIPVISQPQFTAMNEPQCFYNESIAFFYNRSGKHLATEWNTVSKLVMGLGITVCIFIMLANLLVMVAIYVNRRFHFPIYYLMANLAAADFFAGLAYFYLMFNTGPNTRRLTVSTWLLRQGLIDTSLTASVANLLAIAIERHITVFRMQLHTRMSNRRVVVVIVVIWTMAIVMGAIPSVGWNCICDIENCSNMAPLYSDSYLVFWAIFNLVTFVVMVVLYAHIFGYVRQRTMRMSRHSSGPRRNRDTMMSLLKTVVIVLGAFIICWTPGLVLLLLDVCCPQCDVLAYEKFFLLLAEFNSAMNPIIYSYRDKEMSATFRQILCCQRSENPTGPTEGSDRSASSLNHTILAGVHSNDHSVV

Row | SMILES | EC50 [nM]
1 | C[C@@H](OC(=O)Nc1c(-c2ccc3c(c2)CCC(=O)N3)nnn1C)c1cccnc1Cl [Compound 17, (R)-1-(2-chloropyridin-3-yl)ethyl (1-methyl-4-(2-oxo-1,2,3,4-tetrahydroquinolin-6-yl)-1H-1,2,3-triazol-5-yl)-carbamate] | 390
2 | CC1Oc2nc(-c3nnn(C)c3NC(=O)O[C@H](C)c3cccnc3Cl)ccc2NC1=O (stereo partly drawn) [Compound 22, (R)-1-(2-chloropyridin-3-yl)ethyl (1-methyl-4-(3-methyl-2-oxo-2,3-dihydro-1H-pyrido[2,3-b][1,4]oxazin-6-yl)-1H-1,2,3-triazol-5-yl)carbamate] | 86
3 | CC(OC(=O)Nc1c(-c2ccc3c(n2)OCC(=O)N3)nnn1C)c1cc(F)ncc1F (centres unmarked) [Compound 2, 1-(2,5-difluoropyridin-4-yl)ethyl(1-methyl-4-(2-oxo-2,3-dihydro-1H-pyrido[2,3-b][1,4]-oxazin-6-yl)-1H-1,2,3-triazol-5-yl)carbamate] | 1980
4 | CC1Oc2nc(-c3nnn(C)c3NC(=O)O[C@H](C)c3cc(F)cnc3F)ccc2NC1=O (stereo partly drawn) [Compound 32, (R)-1-(2,5-difluoropyridin-3-yl)ethyl (1-methyl-4-(3-methyl-2-oxo-2,3-dihydro-1H-pyrido[2,3-b][1,4]oxazin-6-yl)-1H-1,2,3-triazol-5-yl)carbamate] | 3780
5 | C[C@@H](OC(=O)Nc1c(-c2cnc3c(c2)OCC(=O)N3)nnn1C)c1cccnc1Cl [Compound 8, (R)-1-(2-chloropyridin-3-yl)ethyl (1-methyl-4-(3-oxo-3,4-dihydro-2H-pyrido[3,2-b][1,4]oxazin-7-yl)-1H-1,2,3-triazol-5-yl)carbamate] | 765
6 | C[C@@H](OC(=O)Nc1c(-c2ccc3c(c2)CC(=O)N3)nnn1C)c1ccccc1Cl [Compound 14, (R)-1-(2-chlorophenyl)ethyl(1-methyl-4-(2-oxoindolin-5-yl)-1H-1,2,3-triazol-5-yl)carbamate] | 4160
7 | C[C@@H](OC(=O)Nc1c(-c2ccc3c(n2)OCC(=O)N3)nnn1C)c1cc(F)cnc1Cl [Compound 1, (R)-1-(2-chloro-5-fluoropyridin-3-yl)ethyl (1-methyl-4-(2-oxo-2,3-dihydro-1H-pyrido[2,3-b][1,4]oxazin-6-yl)-1H-1,2,3-triazol-5-yl)carbamate] | 85
8 | C[C@@H](OC(=O)Nc1c(-c2ccc3c(n2)OCC(=O)N3)nnn1C)c1cccnc1Cl [Compound 24, (R)-1-(2-chloropyridin-3-yl)ethyl (1-methyl-4-(2-oxo-2,3-dihydro-1H-pyrido[2,3-b][1,4]oxazin-6-yl)-1H-1,2,3-triazol-5-yl)carbamate] | 123
